Consider 32 compounds from patent US20050261292A1, “Pharmaceutical composition containing N-sulfamoyl-N'-arylpiperazines for the treatment or inhibition of obesity and related conditions” (Solvay Pharmaceuticals GmbH, priority 2004, published 2005).

Structures are written as SMILES. Structures can show the parent of a compound that is named as a salt.

The target of data set [1] is T1, human carbonic anhydrase isoenzyme II (hCA II) (Homo sapiens, UniProt P00918).
T1 construct: human carbonic anhydrase isoenzyme II from erythrocytes (Sigma-Aldrich); purchased Sigma-Aldrich; host or cells: human erythrocytes (natural source)
Description: In vitro inhibition of human carbonic anhydrase isoenzyme II (hCA II), dansylamide fluorescence. The data set is classed as biochemical. Particulars: hCA II from erythrocytes 10^-7 M, 60 min, single measurements, read-out: hCA II inhibiting effect in vitro, IC50. How it is done: 1. In vitro Inhibition of Human Carbonic Anhydrase Isoenzyme II (hCA II)
The test compounds of Formula I in 96 well microplates were diluted with aqua bidest by using an automatic pipettor (CyBiWell®). From the different dilution plates, aliquots of 20 μl were transferred to the 96 well black assay plates with a pipetting station (Tecan Genesis®). In a second step, 148 μl of potassium phosphate buffer (20 mM, pH 7.4) was added, and as a third step, 20 μl of enzyme solution (1 μM human carbonic anhydrase isoenzyme II from erythrocytes (Sigma-Aldrich), dissolved in potassium phosphate buffer) incubated for 60 min at room temperature and the fluorescence signal (Tecan Ultra® fluorescence reader; excitation wavelength: 280 nm; emission wavelength: 465 nm) read at the end of the preincubation period (FLU-1). After the preincubation time, 20 μl of aqueous dansylamide solution (1 mM dansylamide (Sigma-Aldrich), dissolved in hydrochloric acid) were added and the fluorescence signal read every 10 min for a period of 60 min at 37° C. For calculation, the fluorescence data of the time point 60 min (FLU-2) were used. The total volume of assay mixture amounted to 208 μl. The final concentration of carbonic anhydrase II was 10^−7 M/L, of dansylamide 2.25×10^−6 and of compounds from 10^−8 M/L up to 10^−5 M/L. Final concentration of DMSO as compound solvent was […]. Each microplate also contained blanks without compound and enzyme, controls without compound and ethoxzolamide (final concentration 5×10^−8 M/L). All data reflect single measurements. Data were expressed as % inhibition after calculation by the formula: % inhibition=100((1−(FLU−2cpd−FLU−2blank−FLU−1cpd+FLU−1blank)/(FLU−2control−FLU−2blank−FLU−1control−FLU−1blank))
The % inhibition data for each compound and the respective final concentrations were used for IC50 calculations by using the Prism 4 software. Concentration action figures were calculated by applying the Prism algorithm for nonlinear regression (curve-fit): sigmoidal dose response with variable slope and the constraints: top: 100 and bottom 0.

For a further data set, the system named is male fatty Zucker rats. Description: In vivo oral glucose tolerance test in the rat. Conditions: 100 mg/kg/day oral gavage; for Glucose Baseline / Insulin Baseline: 0 min sample before glucose challenge; for Insulin Baseline / Insulin AUC / Insulin Maximal effect: plasma; for Glucose Maximal effect / Glucose AUC / Insulin AUC / Insulin Maximal effect: oral glucose challenge 1.25 g/kg; for Glucose AUC / Insulin AUC: 0-120 min. How it is done:
2. In vivo Oral Glucose Tolerance Test in the Rat
The studies were carried out in individually housed male fatty Zucker rats (n=10 per group) weighing ca. 250-500 g. The rats were kept on a normal 12/12 h light/dark cycle (lights on 07.00) and they were allowed food (lab chow) and water ad libitum except for during experiments, when they were fasted overnight before the glucose challenge.
The test substances of Formula I were suspended in 2% polyethylenglycol (=PEG) 1% carboxymethylcellulose and administered by oral gavage at a dose of 100 mg/kg/day; ⅓ of the dose (1 ml/kg, 33 mg/ml) was administered at 08.30-09.30 h; the remaining […] (2 ml/kg; 33 mg/ml) was administered between 16.00-17.00 h and the last ⅓ dose was given the following morning. Control animals received only the vehicle. On the day of the test, 45 min after the final dose of test substance/vehicle a blood sample (0 min) was taken (tail vein) immediately after which the rats received an oral glucose challenge (1.25 g/kg; 118 mg/ml). Further blood samples were taken at 30, 60, 90, 120 min after the glucose challenge. The second drop of blood of each sample was placed on a glucose test strip before this was placed in the glucose meter for determination of blood glucose level (Life Scan One Touch Ultra Blood® Glucose Meter and Life Scan One Touch Ultra® Test Strips; Life Scan Inc.; Milpitas, Calif. 95035). The remaining blood of each sample was spun and the plasma was frozen at −80° C. before analysis for insulin (1-2-3 Rat Insulin ELISA kit, Alpco Diagnostics).
The values obtained were plotted and the AUC for test compounds and vehicle (for glucose and insulin) were determined after which the percent control AUC, percent control maximum value and % control baseline were estimated, to determine the influence of the test compound on the glucose tolerance.

For the next data set, the system named is male C57Bl/6 mice. Description: Acute in vivo food intake test in mice. Conditions: high caloric diet, 100 mg/kg/day oral gavage in two halves. On the procedure: 3. Acute in vivo Food Intake Test in Mice
The studies were carried out in individually housed male C57Bl/6 mice (n=8 per group). The mice were kept on an inverted 12/12 h light/dark cycle (lights on 22:00). They were allowed food (high caloric diet) and water ad libitum. Food intake and water consumption was measured daily. The test compound of Formula I was suspended in 1% methylcellulose in water and 2% (v/v) of Poloxamer 188 (Lutrol F68®) and administered by oral gavage at a dose of 100 mg/kg/day.
In the test model described above, the test substances caused a decrease of the animals' 24 h food intake to the percentages of food intake when compared to control as given in table 3 below.

For `NS(=O)(=O)N1CCN(c2ccncc2)CC1` (as salt: HCl) [Example 6, 4-pyridin-4-yl-piperazine-1-sulfonic acid amide], the melting point is 243 °C.
`Cc1cccc(N2CCN(S(N)(=O)=O)CC2)c1C` (as salt: HCl) [Example 8] showed a melting point of 202 °C.
The compound `NS(=O)(=O)N1CCN(c2ccc(F)cc2)CC1` (as salt: HCl) [Example 9, 4-(4-fluoro-phenyl)-piperazine-1-sulfonic acid amide] came in with a melting point of 125 °C.
For the compound `Cc1ccc(Cl)cc1N1CCN(S(N)(=O)=O)CC1` (as salt: HCl) [Example 11], the melting point was found to be 190 °C.
The same measure, in the same setting: the result for `NS(=O)(=O)N1CCN(c2ccc(Cl)c(C(F)(F)F)c2)CC1` (as salt: HCl) [Example 12, 4-(4-chloro-3-trifluoromethyl-phenyl)-piperazine-1-sulfonic acid amide] reads 180 °C; that for `N#Cc1cccnc1N1CCN(S(N)(=O)=O)CC1` (as salt: HCl) [Example 13], 190 °C; that for `NS(=O)(=O)N1CCN(c2ncc(C(F)(F)F)cc2Cl)CC1` (as salt: HCl) [Example 14, 4-(3-chloro-5-trifluoromethyl-pyridin-2-yl)-piperazine-1-sulfonic acid amide], 159 °C.
The same measure, in the same setting: to `CC(=O)c1ccc(N2CCN(S(N)(=O)=O)CC2)cc1` (as salt: HCl) [Example 15] belongs 156 °C.
`NS(=O)(=O)N1CCN(c2c(Cl)cncc2Cl)CC1` (as salt: HCl) [Example 16] gave a melting point of 206 °C.
Same read-out and setting: the result for `NS(=O)(=O)N1CCN(c2cc(C(F)(F)F)nc3ccccc23)CC1` (as salt: HCl) [Example 17] reads 191 °C; that for `NS(=O)(=O)N1CCN(c2nccc(C(F)(F)F)n2)CC1` (as salt: HCl) [Example 18], 156 °C; that for `NS(=O)(=O)N1CCN(c2ccc(C(F)(F)F)cn2)CC1` (as salt: HCl) [Example 19], 169 °C.
Regarding `NS(=O)(=O)N1CCN(c2ccc(C(F)(F)F)cc2[N+](=O)[O-])CC1` (as salt: HCl) [Example 20], the melting point worked out at 134 °C.
With `CS(=O)(=O)c1ccc(N2CCN(S(N)(=O)=O)CC2)c(F)c1` (as salt: HCl) [Example 21], the melting point amounted to 184 °C.
As to `COc1ccccc1N1CCN(S(N)(=O)=O)CC1` [Example 3, 4-(2-Methoxy-phenyl)-piperazine-1-sulfonic acid amide hydrochloride], in data set [1], the 50% inhibitory concentration (IC50) worked out at 7800 nM.
In the case of `NS(=O)(=O)N1CCN(c2ccccn2)CC1` [Example 4, 4-Pyridin-2-yl-piperazine-1-sulfonic acid amide], the IC50 in data set [1] is 3700 nM.
Take `NS(=O)(=O)N1CCN(c2ccncc2)CC1` [Example 6, 4-pyridin-4-yl-piperazine-1-sulfonic acid amide]: in the data set on male fatty Zucker rats, the “Glucose Baseline” value is listed as 91 % of control, the “Insulin Baseline” value is 109 % of control, the “Glucose Maximal effect” value is listed as 84 % of control and the “Glucose AUC” value is 89 % of control. For the same compound, in the data set on male fatty Zucker rats, the “Insulin AUC” value is listed as 104 % of control and the “Insulin Maximal effect” value was 123 % of control.
Consider `NS(=O)(=O)N1CCN(c2ncccn2)CC1` [Example 7, 4-pyrimidin-2-yl-piperazine-1-sulfonic acid amide], for which the “24 h food intake” value in the data set with male C57Bl/6 mice was 78 % of control. In data set [1], the IC50 is 1800 nM.
`Cc1cccc(N2CCN(S(N)(=O)=O)CC2)c1C` [Example 8]: the IC50 in data set [1] worked out at 1700 nM.
For `NS(=O)(=O)N1CCN(c2ccc(F)cc2)CC1` [Example 9, 4-(4-fluoro-phenyl)-piperazine-1-sulfonic acid amide], in data set [1], the IC50 worked out at 7300 nM.
The same measure, in the same setting: to `NS(=O)(=O)N1CCN(c2cccc(Cl)c2)CC1` [Example 10] belongs 4000 nM.
For the compound `Cc1ccc(Cl)cc1N1CCN(S(N)(=O)=O)CC1` [Example 11], the IC50 in data set [1] was 500 nM.
As for `NS(=O)(=O)N1CCN(c2ccc(Cl)c(C(F)(F)F)c2)CC1` [Example 12, 4-(4-chloro-3-trifluoromethyl-phenyl)-piperazine-1-sulfonic acid amide], in the data set with male C57Bl/6 mice, the “24 h food intake” value is recorded as 53 % of control. Further, in data set [1], the IC50 worked out at 1200 nM.
Regarding `N#Cc1cccnc1N1CCN(S(N)(=O)=O)CC1` [Example 13], the IC50 in data set [1] is 900 nM.
As for `NS(=O)(=O)N1CCN(c2ncc(C(F)(F)F)cc2Cl)CC1` [Example 14, 4-(3-chloro-5-trifluoromethyl-pyridin-2-yl)-piperazine-1-sulfonic acid amide], in the data set with male fatty Zucker rats, the “Glucose Baseline” value was 88 % of control, the “Insulin Baseline” value was 97 % of control, the “Glucose Maximal effect” value is 94 % of control and the “Glucose AUC” value is recorded as 102 % of control. In the data set on male fatty Zucker rats, the “Insulin AUC” value is 107 % of control and the “Insulin Maximal effect” value is listed as 92 % of control. The IC50 in data set [1] is 200 nM.
As for `CC(=O)c1ccc(N2CCN(S(N)(=O)=O)CC2)cc1` [Example 15], the “24 h food intake” value in the data set on male C57Bl/6 mice is 79 % of control. For the same compound, the IC50 in data set [1] amounted to 400 nM.
Take `NS(=O)(=O)N1CCN(c2c(Cl)cncc2Cl)CC1` [Example 16]: in data set [1], the IC50 came out at 300 nM.
As to `NS(=O)(=O)N1CCN(c2cc(C(F)(F)F)nc3ccccc23)CC1` [Example 17], the IC50 in data set [1] stood at 1900 nM.
Take `NS(=O)(=O)N1CCN(c2nccc(C(F)(F)F)n2)CC1` [Example 18]: in data set [1], the IC50 was 1600 nM.
Regarding `NS(=O)(=O)N1CCN(c2ccc(C(F)(F)F)cn2)CC1` [Example 19], the IC50 in data set [1] was 80 nM.
The same measure, in the same setting: to `NS(=O)(=O)N1CCN(c2ccc(C(F)(F)F)cc2[N+](=O)[O-])CC1` [Example 20] belongs 300 nM.
Regarding `CS(=O)(=O)c1ccc(N2CCN(S(N)(=O)=O)CC2)c(F)c1` [Example 21], the “24 h food intake” value with male C57Bl/6 mice is listed as 76 % of control. Further, in data set [1], the IC50 came out at 200 nM.
